The test system of assay [1] is transgenic soybean plants (T0 cuttings) expressing heterologous HPPD. In words: Greenhouse testing of transgenic soybean plants (T0 cuttings). It counts as in vivo, Glycine max. Also noted: key: % injury: 0% = no injury, 100% = complete death. The following applies: two weeks after treatment. The method, then: Transgenic plants expressing heterologous HPPD or HST enzymes are tested for tolerance against coumarone-derivative herbicides in greenhouse experiments.
For post emergence treatment, the test plants are first grown to a height of 3 to 15 cm, depending on the plant habit, and only then treated with the herbicides. For this purpose, the test plants are either sown directly and grown in the same containers, or they are first grown separately and transplanted into the test containers a few days prior to treatment.
For testing of T0 plants, cuttings can be used. In the case of soybean plants, an optimal shoot for cutting is about 7.5 to 10 cm tall, with at least two nodes present. Each cutting is taken from the original transformant (mother plant) and dipped into rooting hormone powder (indole-3-butyric acid, IBA). The cutting is then placed in oasis wedges inside a bio-dome. Wild type cuttings are also taken simultaneously to serve as controls. The cuttings are kept in the biodome for 5-7 days and then transplanted to pots and then acclimated in the growth chamber for two more days. Subsequently, the cuttings are transferred to the greenhouse, acclimated for approximately 4 days, and then subjected to spray tests as indicated.
Depending on the species, the plants are kept at 10-25° C. or 20-35° C. The test period extends over 3 weeks. During this time, the plants are tended and their response to the individual treatments is evaluated. Herbicide injury evaluations are taken at 2 and 3 weeks after treatment. Plant injury is rated on a scale of 0 to 9, 0 being no injury and 9 being complete death. Tolerance to coumarone-derivative herbicides can also be assessed in Arabidopsis. In this case transgenic Arabidopsis thaliana plants are assayed for improved tolerance to coumarone-derivative herbicides in 48-well plates. Seeds are surface sterilized by stirring for 5 min in ethanol+water (70+30 by volume), rinsing one time with ethanol+water (70+30 by volume) and two times with a sterile, deionized water. The seeds are resuspended in 0.1% agar dissolved in water (w/v). Four to five seeds per well are plated on solid nutrient medium consisting of half-strength Murashige Skoog nutrient solution, pH 5.8 (Murashige and Skoog (1962) Physiologia Plantarum 15: 473-497). Compounds are dissolved in dimethylsulfoxid (DMSO) and added to the medium prior solidification (final DMSO concentration 0.1%). Multi well plates are incubated in a growth chamber at 22° C., 75% relative humidity and 110 μmol Phot * m-2 * s-1 with 14: 10 h light: dark photoperiod. Seven to ten days after seeding growth inhibition is evaluated by comparison to wild type plants. Tolerance factor is calculated by dividing the plant growth IC50 value of transgenic plants containing a HPPD and/or HST sequence by that of wildtype plants. Additionally, T1 and T2 transgenic Arabidopsis plants can be tested for improved tolerance to coumarone-derivative herbicides in a greenhouse studies. Herbicide injury scoring is done 2-3 weeks after treatment and is rated on a scale of 0 to 100%, 0% being no injury and 100% being complete death.

The target of assay [2] is T1, Arabidopsis HPPD variant M335H (Arabidopsis thaliana, UniProt P93836, M335H).
T1 construct: His6 (N); made in house; host or cells: E. coli BL21 (DE3)
T1 sequence (P93836 whole entry M335H): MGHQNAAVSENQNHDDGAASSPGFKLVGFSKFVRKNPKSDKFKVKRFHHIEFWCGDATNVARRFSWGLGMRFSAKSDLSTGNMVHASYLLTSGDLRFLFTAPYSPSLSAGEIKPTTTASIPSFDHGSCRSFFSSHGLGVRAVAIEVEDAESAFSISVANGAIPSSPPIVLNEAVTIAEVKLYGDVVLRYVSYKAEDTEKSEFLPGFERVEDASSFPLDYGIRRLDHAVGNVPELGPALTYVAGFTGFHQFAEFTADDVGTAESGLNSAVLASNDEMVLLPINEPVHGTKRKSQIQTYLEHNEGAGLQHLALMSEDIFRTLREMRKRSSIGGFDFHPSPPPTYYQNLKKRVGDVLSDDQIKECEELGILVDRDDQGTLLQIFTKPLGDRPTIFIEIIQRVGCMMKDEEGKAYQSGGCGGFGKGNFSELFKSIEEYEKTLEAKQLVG
In words: HPPD activity assay, Arabidopsis HPPD mutant M335H. It is filed as biochemical. The following applies: normalized on wildtype. The method, then: HPPD produces homogentisic acid and CO2 from 4-hydroxyphenylpyruvate (4-HPP) and O2. The activity assay for HPPD is based on the analysis of homogentisic acid by reversed phase HPLC.
The assay mixture can contain 150 mM potassium phosphate buffer pH 7.0, 50 mM L-ascorbic acid, 1 μM FeSO4 and 7 μg of purified enzyme in a total volume of 1 ml. Inhibitors are dissolved in DMSO (dimethylsulfoxide) to a concentration of 20 mM or 0.5 mM, respectively. From this stock solution serial five-fold dilutions are prepared in DMSO, which are used in the assay. The respective inhibitor solution accounts for 1% of the assay volume. Thus, final inhibitor concentrations range from 200 μM to 2.5 nM or from 5 μM to 63 pM, respectively. After a preincubation of 30 min the reaction is started by adding 4-HPP to a final concentration of 0.1 mM. […]
Inhibitors are dissolved in DMSO (dimethylsulfoxide) to a concentration of 0.5 mM. […] IC50 values are calculated using non-linear regression.
Purified, mutant HPPD enzymes are obtained by the methods described above. […] Apparent michaelis constants (Km) and maximal reaction velocities (Vmax) are calculated by non-linear regression with the software GraphPad Prism 5 (GraphPad Software, La Jolla, USA) using a substrate inhibition model. […] Weighted means (by standard error) of Km and […] values are calculated from at least three independent experiments. […]

For the molecule `CC1=NOC(c2c(Cl)ccc(C3=C(O)c4ncccc4N(CC(F)F)S3(=O)=O)c2Cl)C1` (stereo not shown) [Inhibitor 1, 3-[2,4-dichloro-3-(3-methyl-4,5-dihydroisoxazol-5-yl)phenyl]-1-(2,2-difluoroethyl)-2,2-dioxo-pyrido[3,2-c]thiazin-4-ol], the Injury evaluation in assay [1] (event AV4283 (probably Synechococcus HPPD**, marked: tested at a half rate), dose line 62 g/ha) is listed as 20; in assay [1] (event AV4283 (probably Synechococcus HPPD**, marked: tested at a half rate), dose line 125 g/ha), 20; in assay [1] (event AV4283 (probably Synechococcus HPPD**, marked: tested at a half rate), dose line 250 g/ha), 20; in assay [1] (event AV4287 (marked: tested at a half rate), dose line 62 g/ha) it was 0; in assay [1] (event AV4287 (marked: tested at a half rate), dose line 125 g/ha), 0; in assay [1] (event AV4287 (marked: tested at a half rate), dose line 250 g/ha) it was 0. For the same molecule, the Injury evaluation in assay [1] (event AV4553 (Hordeum HPPD), dose 62 g/ha) is 0; in assay [1] (event AV4553 (Hordeum HPPD), dose 125 g/ha), 10; in assay [1] (event AV4553 (Hordeum HPPD), dose 250 g/ha), 10; in assay [1] (event HT1833 (Arabidopsis HPPD_M335H, plastidic), dose 62 g/ha) it was 0; in assay [1] (event HT1833 (Arabidopsis HPPD_M335H, plastidic), dose 125 g/ha), 5; in assay [1] (event HT1833 (Arabidopsis HPPD_M335H, plastidic), dose 250 g/ha), 5. In addition, the Injury evaluation in assay [1] (event LG5831** (Arabidopsis HPPD_M335H, plastidic), marked: tested at a half rate, dose line 62 g/ha) was 0; in assay [1] (event LG5831** (Arabidopsis HPPD_M335H, plastidic), marked: tested at a half rate, dose line 125 g/ha) it was 0; in assay [1] (event LG5831** (Arabidopsis HPPD_M335H, plastidic), marked: tested at a half rate, dose line 250 g/ha), 0; in assay [1] (event LG6156 (Synechocystis HPPD), dose 62 g/ha), 0; in assay [1] (event LG6156 (Synechocystis HPPD), dose 125 g/ha), 10; in assay [1] (event LG6156 (Synechocystis HPPD), dose 250 g/ha), 10. Moreover, the Injury evaluation amounted to 10 in assay [1] (event LJ383, dose 62 g/ha); 10 in assay [1] (event LJ383, dose 125 g/ha); 20 in assay [1] (event LJ383, dose 250 g/ha); 0 in assay [1] (event LJ387 (Hordeum HPPD), dose 62 g/ha); 0 in assay [1] (event LJ387 (Hordeum HPPD), dose 125 g/ha); 0 in assay [1] (event LJ387 (Hordeum HPPD), dose 250 g/ha). Further, the Injury evaluation came out at 10 in assay [1] (event LJ409, dose 62 g/ha); 10 in assay [1] (event LJ409, dose 125 g/ha); 15 in assay [1] (event LJ409, dose 250 g/ha).
With `O=S1(=O)C(c2c(Cl)cc(Cl)nc2Cl)=C(O)c2ncccc2N1CC(F)F` [Inhibitor 2, 1-(2,2-difluoroethyl)-2,2-dioxo-3-(2,4,6-trichloro-3-pyridyl)pyrido[3,2-c]thiazin-4-ol], the “Normalized tolerance index (TI)” value in assay [2] worked out at 0.2.
